Our source for the IC50 values is patent US20260022114A1, “N-(5-SUBSTITUTED-[(1,3,4-THIADIAZOLYL) OR (1,3-THIAZOLYL)](SUBSTITUTED)CARBOXAMIDE COMPOUNDS, PHARMACEUTICAL COMPOSITIONS, AND METHODS OF PREPARING THE AMIDE COMPOUNDS AND OF THEIR USE” (Repare Therapeutics Inc., priority 2022, published 2026).

A value given as a limit tells only on which side of the number the result lay.

The test has as its target PolQ ATPase enzyme (1-894) (Homo sapiens (Human), UniProt O75417). As to the kind of experiment: Polθ ATPase enzymatic assay (0.5 nM enzyme concentration), ADP-Glo. As to conditions: 0.5 nM PolQ ATPase enzyme (1-894); average IC50. In kind it is biochemical. How it is done:
PolQ ATPase enzyme (1-894) at 0.5 nM is incubated with a 10-point concentration response of inhibitors for 15 min at rt in the following buffer: 50 mM Tris Cl pH 7.5, 10% glycerol, 5 mM DTT, 10 mM MgCl2, 0.1 mg/ml BSA. Following pre-incubation with inhibitors, DNA (Fork C) at 20 nM and ATP at 100 μM are added to start the reaction. Enzymatic reaction proceeds at rt for 180 min. ATP consumption is measured using the ADP-Glo assay from Promega. Luminescence is read on the Envision and IC50 are determined using the variable slope 4-parameters equation.
Oligos are annealed by heating at 95° C. for 5 min in the following buffer (10 mM Tris-HCl PH7.5, 50 mM NaCl, 1 mM EDTA) and cooled to rt. […]
Background: ADP-Glo turns the ADP formed in a reaction into a luminescent signal.

As a reminder, the IC50 is the concentration that inhibits the measured activity by half. Low readings indicate greater potency in that assay, high ones weaker potency in that assay.

Chain of PolQ ATPase enzyme (1-894) (O75417 1-894): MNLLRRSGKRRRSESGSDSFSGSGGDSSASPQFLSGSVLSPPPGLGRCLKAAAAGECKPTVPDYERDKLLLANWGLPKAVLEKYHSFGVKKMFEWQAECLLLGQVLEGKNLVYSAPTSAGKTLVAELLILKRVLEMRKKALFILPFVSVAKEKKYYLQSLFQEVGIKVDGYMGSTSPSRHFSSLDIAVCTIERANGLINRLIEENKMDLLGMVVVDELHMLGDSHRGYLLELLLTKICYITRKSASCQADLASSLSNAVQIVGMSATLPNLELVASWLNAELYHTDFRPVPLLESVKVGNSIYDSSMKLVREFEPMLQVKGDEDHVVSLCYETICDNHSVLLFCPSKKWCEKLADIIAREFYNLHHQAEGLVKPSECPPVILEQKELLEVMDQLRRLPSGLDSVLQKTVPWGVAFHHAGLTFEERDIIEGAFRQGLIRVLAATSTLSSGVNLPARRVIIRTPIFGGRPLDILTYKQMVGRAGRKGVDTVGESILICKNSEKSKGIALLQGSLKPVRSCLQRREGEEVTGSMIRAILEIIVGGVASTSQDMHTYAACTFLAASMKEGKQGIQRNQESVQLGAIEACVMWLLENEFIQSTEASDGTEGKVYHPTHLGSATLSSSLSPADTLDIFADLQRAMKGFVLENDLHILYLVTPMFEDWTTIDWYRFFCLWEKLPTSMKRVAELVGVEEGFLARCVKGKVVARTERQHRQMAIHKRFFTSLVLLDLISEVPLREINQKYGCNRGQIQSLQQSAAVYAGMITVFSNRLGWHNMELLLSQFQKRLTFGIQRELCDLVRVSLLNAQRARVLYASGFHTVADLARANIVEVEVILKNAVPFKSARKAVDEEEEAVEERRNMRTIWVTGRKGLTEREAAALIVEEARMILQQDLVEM

On to `C#C[C@H]1CC1c1nnc(NC(=O)c2cnc(N3CCN(C(=O)OC)C4(CC4)C3=O)cc2-c2cc(C(F)F)ncc2OC)s1` (single isomer, unassigned) [Compound 636], for which the IC50 came out at 0.33 nM. This lies in the sub-nanomolar range.

In turn, `COc1cnc(C(F)F)cc1-c1cc(-n2ncc(C)cc2=O)ncc1C(=O)Nc1nnc(C2C[C@@H]2C)s1` (single isomer, unassigned) [Compound 642] yielded an IC50 of 0.72 nM. As to `COc1ccc(C(F)(F)F)cc1-c1cnccc1C(=O)Nc1nnc(C2C[C@H]2c2ccc(C#N)cc2)s1` (stereo partly shown) [Compound 30], the half-inhibitory concentration (IC50) turned out to be 0.76 nM. To `COc1cnc(Cl)cc1-c1cnccc1C(=O)Nc1nnc(C2C[C@H]2c2ccc(OC(F)F)cc2)s1` (stereo partly shown) [Compound 62] belongs 0.36 nM; to `COc1cnc(C(F)(F)F)cc1-c1cnccc1C(=O)Nc1nnc(C2C[C@H]2c2ccc(C#N)cc2)s1` (stereo partly shown) [Compound 90], 0.8 nM; to `CNC(=O)Cn1cc(-c2cc(C(F)(F)F)ccc2OC)c(C(=O)Nc2nnc(C3C[C@H]3c3ccc(C#N)cc3)s2)cc1=O` (stereo partly shown) [Compound 92], 0.25 nM.

Regarding `Cc1nnc(Cn2cc(-c3cc(C(F)F)ccc3C)c(C(=O)Nc3ncc(C#CC4CC4)s3)cc2=O)o1` [Compound 116], the half-inhibitory concentration (IC50) is under 0.25 nM.

In turn, `COc1cnc(C(F)F)cc1-c1cc(N(C)c2nnc(C)o2)ccc1C(=O)Nc1nnc(C#CC2CC2)s1` [Compound 118, N-(5-(cyclopropylethynyl)-1,3,4-thiadiazol-2-yl)-2-(2-(difluoromethyl)-5-methoxypyridin-4-yl)-4-(methyl (5-methyl-1,3,4-oxadiazol-2-yl)amino)benzamide] returned an IC50 of 0.99 nM. To `C#C[C@@H]1CC1c1nnc(NC(=O)c2ccc(N3CCOCC3=O)cc2-c2cc(C(F)F)ncc2OC)s1` (stereo partly shown) [Compound 177] belongs 0.39 nM. With `C#C[C@H]1CC1c1nnc(NC(=O)c2cnc(CC#N)cc2-c2cc(C(F)F)ncc2OC)s1` (stereo partly shown) [Compound 190] the figure was 5.8 nM. `Cc1nnc(Cn2cc(-c3cc(C(F)F)ccc3Cl)c(C(=O)Nc3nc(C)c(C#CC4CC4)s3)cc2=O)o1` [Compound 199] showed an IC50 of 5.8 nM. In other words, the single-digit nanomolar range. With `COc1cnc(C(F)F)cc1-c1cc(N2CCN(C)CC2=O)ccc1C(=O)Nc1ncc(C#CC2CC2)s1` [Compound 217] the figure was 1.9 nM; with `COc1cnc(C(F)F)cc1-c1cc(CC2CCOCC2)ncc1C(=O)Nc1nnc(C#CC2CC2)s1` [Compound 267], 6.4 nM. To `COc1cnc(Cl)cc1-c1cnccc1C(=O)Nc1nnc(C2C[C@H]2c2ccc(C#N)c(C)c2)s1` (stereo partly shown) [Compound 287] belongs 0.93 nM.

In the case of `COc1cnc(C(F)F)cc1-c1c(C(=O)Nc2nnc(C#CC3CC3)s2)ccc(-c2ccn(C)n2)c1F` [Compound 385], inhibition was half-maximal at 0.87 nM (IC50). To `COc1cnc(C(F)F)cc1-c1nc(-c2nnc(C)o2)ccc1C(=O)Nc1ncc(C#CC2CC2)s1` [Compound 392] belongs over 100 nM; to `COc1cnc(C(F)F)cc1-c1cc(-n2cc(C)c(C)cc2=O)ncc1C(=O)Nc1nnc(C#CC2CC2)s1` [Compound 476], under 0.25 nM; to `Cn1ccc(C2C=C(c3cc(C(F)(F)F)ncc3Cl)C(C(=O)Nc3ncc(C#CC4CC4)s3)=CC2=O)n1` (stereo not shown) [Compound 479], 7.4 nM. With `COc1cnc(C(F)(F)F)nc1-c1cc(CC#N)ccc1C(=O)Nc1nnc(C#CC2CC2)s1` [Compound 482] the figure was 0.73 nM.

`COc1cnc(C(F)F)cc1-c1cc(-c2cccn(C)c2=O)ncc1C(=O)Nc1nnc(C#CC2CC2)s1` [Compound 483] came in with a concentration for half-maximal inhibition (IC50) of under 0.25 nM. `COc1cnc(C(F)F)cc1-c1cc(-c2ccc[nH]c2=O)ncc1C(=O)Nc1nnc(C#CC2CC2)s1` [Compound 484] returned an IC50 of 0.32 nM.

The compound `COc1cnc(C(F)F)cc1-c1cc(N2C[C@H](C)OCC2=O)ncc1C(=O)Nc1nnc(C#CC2CC2)s1` [Compound 486] showed a 50% inhibitory concentration (IC50) of 0.36 nM. The IC50 values of the last two compounds are within 1.5-fold of each other.

As to `COc1cnc(C(F)F)cc1-c1cc(-n2ccc(C)cc2=O)ncc1C(=O)Nc1nnc(C#CC2CCOCC2)s1` [Compound 487], the IC50 is under 0.25 nM. For the compound `COc1cnc(C(F)F)cc1-c1cc(-n2ccc(N)cc2=O)ncc1C(=O)Nc1nnc(C#CC2CC2)s1` [Compound 488], the 50% inhibitory concentration (IC50) was under 0.25 nM.

On to `COc1cc(C)ncc1-c1cc(-c2cc(C(F)F)ncc2OC)c(C(=O)Nc2nnc(C#CC3CC3)s2)cn1` [Compound 489], for which the half-maximal inhibitory concentration (IC50) came out at 0.4 nM. This counts as sub-nanomolar. As for `COc1cnc(C(F)F)cc1-c1cc(-n2ccc(CO)cc2=O)ncc1C(=O)Nc1nnc(C#CC2CC2)s1` [Compound 490], the concentration for half-maximal inhibition (IC50) is under 0.25 nM.

In turn, `COc1cnc(C(F)F)cc1-c1cc(-n2cccc(C(C)=O)c2=O)ncc1C(=O)Nc1nnc(C#CC2CC2)s1` [Compound 491] registered a 50% inhibitory concentration (IC50) of under 0.25 nM.

`COc1cnc(C(F)F)cc1-c1cc(-n2ccc(C(N)=O)cc2=O)ncc1C(=O)Nc1nnc(C#CC2CC2)s1` [Compound 492] yielded an IC50 of under 0.25 nM. Regarding `COc1cnc(C(F)F)cc1-c1cc(-n2ccc(C#N)cc2=O)ncc1C(=O)Nc1nnc(C#CC2CC2)s1` [Compound 493], the half-maximal inhibitory concentration (IC50) was under 0.25 nM. With `COc1cnc(C(F)F)cc1-c1cc(-n2cccc(C)c2=O)ncc1C(=O)Nc1nnc(C#CC2CCOCC2)s1` [Compound 494] the figure was under 0.25 nM; with `COc1cnc(C(F)F)cc1-c1cc(-n2ccc(C(=O)O)cc2=O)ncc1C(=O)Nc1nnc(C#CC2CC2)s1` [Compound 495], 0.33 nM; with `COC(=O)c1ccn(-c2cc(-c3cc(C(F)F)ncc3OC)c(C(=O)Nc3nnc(C#CC4CC4)s3)cn2)c(=O)c1` [Compound 496], under 0.25 nM.

For `COC(=O)C1CCN(c2cc(-c3cc(C(F)F)ncc3OC)c(C(=O)Nc3nnc(C#CC4CC4)s3)cn2)C(=O)C1` (stereo not shown) [Compound 497], the half-maximal inhibitory concentration (IC50) worked out at 0.45 nM.

`COc1cnc(C(F)F)cc1-c1cc(-c2ccc(C)nc2OC)ncc1C(=O)Nc1nnc(C#CC2CC2)s1` [Compound 501] yielded an IC50 of 0.93 nM. To `COc1cnc(C(F)F)cc1-c1cc(N2C[C@@H](C)OCC2=O)ncc1C(=O)Nc1nnc(C#CC2CC2)s1` [Compound 502] belongs 2.4 nM.

`[2H]C([2H])([2H])N1CCN(c2cc(-c3cc(C(F)F)ncc3OC)c(C(=O)Nc3nnc(C#CC4CC4)s3)cn2)C(=O)C12CC2` [Compound 503] yielded a 50% inhibitory concentration (IC50) of under 0.25 nM.

`COC(=O)N1CCN(c2cc(-c3cc(C(F)F)ncc3OC)c(C(=O)Nc3nnc(C#CC4CC4)s3)cn2)C(=O)C12CC2` [Compound 505] registered an IC50 of under 0.25 nM. For `COc1cnc(C(F)F)cc1-c1cc(-n2ccc(C3CCOCC3)cc2=O)ncc1C(=O)Nc1nnc(C#CC2CC2)s1` [Compound 506], the IC50 was under 0.25 nM. With `COc1cnc(C(F)F)cc1-c1cc(Cn2ccccc2=O)ncc1C(=O)Nc1nnc(C#CC2CC2)s1` [Compound 507] the figure was 1.5 nM. With `COc1cnc(C(F)F)cc1-c1cc(N2CCN(CC#N)C3(CC3)C2=O)ncc1C(=O)Nc1nnc(C#CC2CC2)s1` [Compound 508] the figure was 1.2 nM; with `COc1cnc(C(F)F)cc1-c1cc(-n2ccc(B(O)O)cc2=O)ncc1C(=O)Nc1nnc(C#CC2CC2)s1` [Compound 509], 1.7 nM.

Compound `COc1cnc(C(F)F)cc1-c1cc(N2CCN(C3CC3)C3(CC3)C2=O)ncc1C(=O)Nc1nnc(C#CC2CC2)s1` [Compound 510] had an IC50 of 0.92 nM.

`COc1cnc(C(F)F)cc1-c1cc(-c2ccc(C)cc2)ncc1C(=O)Nc1nnc(C#CC2CC2)s1` [Compound 513]: the IC50 was 3.2 nM. Compared with the last compound, the IC50 is about 3.5-fold higher.
